# Data reported in ChEMBL document CHEMBL2176918, “Design and optimization of pyrazinecarboxamide-based inhibitors of diacylglycerol acyltransferase 1 (DGAT1) leading to a clinical candidate dimethylpyrazinecarboxamide phenylcyclohexylacetic acid (AZD7687)” (J Med Chem, 2012).
# Experiments:
# [1] = Terminal half life in human at 1 to 20 mg; format: ADME, organism-based; settings: in vivo, read-out: beta t1/2 (converted)
# [2] = Solubility in 0.1 M phosphate buffer at pH 7.4 at 25 degC incubated for 24 hrs
# [3] = Fraction unbound in human plasma at 37 degC by LC-UV/MS method based equilibrium dialysis method
# [4] = Fraction unbound in dog plasma; format: ADME, cell-free, Canis lupus familiaris
# [5] = biological target: Cytochrome P450 2C19 (Homo sapiens, UniProt P33261); test: Inhibition of CYP2C19; format: ADME
# [6] = tested on: Rattus norvegicus; test: Inhibition of plasma triacylglycerol excursion in 14 hrs fasted Han-Wistar rat at administered orally 2 hrs before bolus corn oil administration measured 1.5 hrs post corn oil challenge by oral lipid tolerance test relative to control
# [7] = Chemical stability in pH 1 to 10 buffer at 25 degC; format: physicochemical
# [8] = biological target: T1, Diacylglycerol O-acyltransferase 1 (Rattus norvegicus, UniProt Q9ERM3); test: Inhibition of DGAT1 in rat liver microsomes; design: species or system Microsome
# T1 sequence (Q9ERM3 whole entry): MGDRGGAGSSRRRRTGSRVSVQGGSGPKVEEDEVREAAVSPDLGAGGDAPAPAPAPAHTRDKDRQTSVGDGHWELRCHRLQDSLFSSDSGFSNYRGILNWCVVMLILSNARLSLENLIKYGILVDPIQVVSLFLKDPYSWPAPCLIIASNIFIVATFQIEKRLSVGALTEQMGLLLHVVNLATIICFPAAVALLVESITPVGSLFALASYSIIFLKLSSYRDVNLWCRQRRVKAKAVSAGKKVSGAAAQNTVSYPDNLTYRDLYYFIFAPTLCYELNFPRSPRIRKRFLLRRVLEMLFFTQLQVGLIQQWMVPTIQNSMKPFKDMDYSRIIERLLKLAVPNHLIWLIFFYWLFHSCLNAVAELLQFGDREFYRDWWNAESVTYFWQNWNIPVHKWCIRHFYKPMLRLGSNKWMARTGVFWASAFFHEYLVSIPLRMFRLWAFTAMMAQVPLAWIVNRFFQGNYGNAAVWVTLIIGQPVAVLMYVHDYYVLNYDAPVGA
# [9] = biological target: T2, Diacylglycerol O-acyltransferase 1 (Homo sapiens, UniProt O75907)
# T2 sequence (O75907 whole entry): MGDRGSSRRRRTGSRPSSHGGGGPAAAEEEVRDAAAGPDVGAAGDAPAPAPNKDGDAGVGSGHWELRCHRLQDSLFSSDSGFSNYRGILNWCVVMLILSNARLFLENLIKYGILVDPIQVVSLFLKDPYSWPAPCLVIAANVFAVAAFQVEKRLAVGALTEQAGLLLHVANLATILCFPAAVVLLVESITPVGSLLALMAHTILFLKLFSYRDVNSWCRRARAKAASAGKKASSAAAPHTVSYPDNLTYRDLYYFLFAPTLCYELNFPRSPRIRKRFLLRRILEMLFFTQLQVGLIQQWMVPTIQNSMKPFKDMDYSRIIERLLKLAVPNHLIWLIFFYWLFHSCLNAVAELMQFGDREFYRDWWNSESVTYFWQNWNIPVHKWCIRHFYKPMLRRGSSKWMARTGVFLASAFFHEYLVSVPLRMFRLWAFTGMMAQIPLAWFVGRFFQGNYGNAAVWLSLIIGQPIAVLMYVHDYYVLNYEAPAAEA
# Description: Inhibition of human recombinant DGAT1 expressed in Sf9 cells by liquid scintillography
# [10] = tested on: Rattus norvegicus; test: Inhibition of adipose triacylglycerol synthesis in 14 hrs fasted Han-Wistar rat assessed as decrease in ratio of [3H]palmitic acid incorporation in to TAG and DAG at 8 mg/kg administered orally and measured 1.5 hrs post dose relative to control
# [11] = Half life in Han-Wistar rat at 2.54 to 5.4 uM/kg, po; format: ADME, organism-based; settings: in vivo
# [12] = biological target: T3, Diacylglycerol O-acyltransferase 1 (Mus musculus, UniProt Q9Z2A7); test: Inhibition of DGAT1 in mouse liver microsomes; design: species or system Microsome
# T3 sequence (Q9Z2A7 whole entry): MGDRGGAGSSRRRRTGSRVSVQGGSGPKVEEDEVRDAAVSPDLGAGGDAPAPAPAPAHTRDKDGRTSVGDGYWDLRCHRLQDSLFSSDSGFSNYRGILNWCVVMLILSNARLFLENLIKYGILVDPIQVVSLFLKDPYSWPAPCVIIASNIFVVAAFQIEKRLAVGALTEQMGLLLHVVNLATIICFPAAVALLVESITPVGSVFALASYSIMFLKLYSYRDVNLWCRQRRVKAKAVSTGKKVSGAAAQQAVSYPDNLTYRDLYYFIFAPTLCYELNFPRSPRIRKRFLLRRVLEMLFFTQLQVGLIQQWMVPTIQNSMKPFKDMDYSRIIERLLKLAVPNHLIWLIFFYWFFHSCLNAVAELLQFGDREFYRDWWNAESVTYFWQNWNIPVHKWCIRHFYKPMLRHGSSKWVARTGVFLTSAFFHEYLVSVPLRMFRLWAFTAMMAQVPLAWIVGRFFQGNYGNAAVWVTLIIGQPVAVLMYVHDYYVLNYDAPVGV
# [13] = biological target: T4, Diacylglycerol O-acyltransferase 2 (Homo sapiens, UniProt Q96PD7); test: Inhibition of human DGAT2 by liquid scintillography
# T4 sequence (Q96PD7 whole entry): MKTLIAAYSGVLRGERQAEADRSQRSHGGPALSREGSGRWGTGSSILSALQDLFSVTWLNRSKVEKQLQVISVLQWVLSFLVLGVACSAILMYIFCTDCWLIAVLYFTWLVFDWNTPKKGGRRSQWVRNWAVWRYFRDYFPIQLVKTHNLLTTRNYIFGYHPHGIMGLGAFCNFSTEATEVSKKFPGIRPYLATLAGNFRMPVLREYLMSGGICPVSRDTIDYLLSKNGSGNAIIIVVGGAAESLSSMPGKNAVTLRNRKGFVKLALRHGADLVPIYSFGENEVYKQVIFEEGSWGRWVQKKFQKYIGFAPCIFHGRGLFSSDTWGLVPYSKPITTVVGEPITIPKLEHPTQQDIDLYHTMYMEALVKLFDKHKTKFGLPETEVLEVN
# [14] = biological target: T5, Muscarinic acetylcholine receptor M2 (Homo sapiens, UniProt P08172); test: Inhibition of muscarinic M2 receptor
# T5 sequence (P08172 whole entry): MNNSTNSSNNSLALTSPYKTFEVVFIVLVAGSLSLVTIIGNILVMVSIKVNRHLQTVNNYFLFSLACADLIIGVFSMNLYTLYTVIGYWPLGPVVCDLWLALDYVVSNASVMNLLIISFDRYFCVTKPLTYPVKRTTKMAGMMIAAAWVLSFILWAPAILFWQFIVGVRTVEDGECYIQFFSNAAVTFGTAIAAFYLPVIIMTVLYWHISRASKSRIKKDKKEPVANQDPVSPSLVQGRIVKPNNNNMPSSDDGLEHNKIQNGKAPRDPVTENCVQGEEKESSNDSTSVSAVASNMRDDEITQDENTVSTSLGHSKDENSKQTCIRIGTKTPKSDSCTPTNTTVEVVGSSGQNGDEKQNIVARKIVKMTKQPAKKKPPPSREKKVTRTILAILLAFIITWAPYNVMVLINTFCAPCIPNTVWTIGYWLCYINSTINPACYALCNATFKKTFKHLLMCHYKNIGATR
# [15] = Tmax in human at 1 to 20 mg; format: ADME, organism-based; settings: in vivo
# [16] = biological target: Cytochrome P450 2C9 (Homo sapiens, UniProt P11712); test: Inhibition of CYP2C9; format: ADME
# Chain of Cytochrome P450 2C9 (P11712 whole entry): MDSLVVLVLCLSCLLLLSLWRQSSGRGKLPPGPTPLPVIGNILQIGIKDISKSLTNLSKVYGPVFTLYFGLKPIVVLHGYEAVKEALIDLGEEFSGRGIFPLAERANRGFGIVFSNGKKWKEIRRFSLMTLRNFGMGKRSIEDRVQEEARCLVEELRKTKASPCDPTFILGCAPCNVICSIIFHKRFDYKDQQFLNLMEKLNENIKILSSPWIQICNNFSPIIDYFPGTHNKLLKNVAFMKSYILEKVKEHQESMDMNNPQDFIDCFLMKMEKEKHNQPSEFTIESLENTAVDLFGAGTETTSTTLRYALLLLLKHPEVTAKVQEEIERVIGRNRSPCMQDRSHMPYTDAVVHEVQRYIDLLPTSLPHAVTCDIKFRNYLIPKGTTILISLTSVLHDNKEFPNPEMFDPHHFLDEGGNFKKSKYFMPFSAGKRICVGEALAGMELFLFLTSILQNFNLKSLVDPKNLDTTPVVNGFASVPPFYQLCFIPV
# Chain of Cytochrome P450 2C19 (P33261 whole entry): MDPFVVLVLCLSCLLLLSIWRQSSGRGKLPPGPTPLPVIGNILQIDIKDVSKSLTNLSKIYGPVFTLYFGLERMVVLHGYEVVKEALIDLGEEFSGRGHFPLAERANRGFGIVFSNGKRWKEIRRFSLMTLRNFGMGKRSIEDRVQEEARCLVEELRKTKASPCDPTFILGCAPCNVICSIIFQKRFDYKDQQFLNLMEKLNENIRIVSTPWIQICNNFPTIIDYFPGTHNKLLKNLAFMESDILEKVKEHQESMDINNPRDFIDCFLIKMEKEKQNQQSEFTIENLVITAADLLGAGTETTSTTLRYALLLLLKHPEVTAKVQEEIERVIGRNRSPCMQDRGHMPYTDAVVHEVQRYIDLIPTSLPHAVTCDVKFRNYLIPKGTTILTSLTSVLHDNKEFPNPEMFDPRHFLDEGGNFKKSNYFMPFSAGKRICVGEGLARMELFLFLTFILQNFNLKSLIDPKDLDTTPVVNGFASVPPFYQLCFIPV
structure (smiles),measurement,setting,value
Cc1nc(C)c(-c2ccc(C3CCC(CC(=O)O)CC3)cc2)nc1C(N)=O (stereo unspecified) [AZD-7687],half-life,[1],9 h
same,solubility at 24 h,[2],700 µM
same,fraction unbound,[3],0.047
same,fraction unbound,[4],0.06
same,IC50,[5],> 30 µM
same,IC50,[6],0.042 µM
same,half-life,[7],> 100 days
same,IC50,[8],0.15 µM
same,IC50,[9],0.08 µM
same,IC50,[10],0.132 µM
same,half-life,[11],14 h
same,IC50,[12],0.1 µM
same,IC50,[13],> 300 µM
same,IC50,[14],80.5 µM
same,Tmax,[15],≤ 1 h
same,IC50,[16],> 30 µM
